Data reported in the supplement of paper PMC4862054.

Experiments:
[1] = test system: MDA-MB-468; assay: drug sensitivity score (DSS), CellTiter-Blue viability (DSS (AUC-based score)); higher = stronger viability inhibition; extreme values may be limits of the assay; details: incubation time: 72 h
Method: (§1)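 DSRT with the CellTiter-Blue (resazurin reduction) viability readout, fluorescence 560/590 nm, 72 h incubation. Plates were normalised to DMSO and benzethonium chloride controls. DSS is computed from the area under the fitted dose-response curve (5 or 9 concentrations).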

[2] = test system: HCC1143; assay: as above; details: incubation time: 72 h
Method: as §1

[3] = test system: CAL-51; assay: as above; details: incubation time: 72 h
Method: as §1

[4] = test system: SK-BR-3; assay: as above; details: incubation time: 72 h
Method: as §1

[5] = test system: HDQ-P1; assay: as above; details: incubation time: 72 h
Method: as §1

[6] = test system: CAL-148; assay: as above; details: incubation time: 72 h
Method: as §1

[7] = test system: CAL-120; assay: as above; details: incubation time: 72 h
Method: as §1

[8] = test system: CAL-85-1; assay: as above; details: incubation time: 72 h
Method: as §1

[9] = test system: BT-474; assay: normalised viability (% of control), CellTiter-Blue; higher = more viable cells (about 100 = DMSO control); details: incubation time: 72 h
Summary of the method: (§2)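 After 72 h on compound-loaded 384-well plates, breast cancer cell lines received 2.5 µl CellTiter-Blue reagent for 2 h at 37 °C. Fluorescence at 560/590 nm was scaled per plate so that vehicle was 100 and a positive kill control was 0. The value stands for normalised viability at a single listed concentration of the series.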

[10] = test system: MDA-MB-468; assay: as above; details: incubation time: 72 h
Summary of the method: as §2

[11] = test system: BT-549; assay: as above; details: incubation time: 72 h
Summary of the method: as §2

[12] = test system: Hs578T; assay: as above; details: incubation time: 72 h
Summary of the method: as §2

[13] = test system: MDA-MB-453; assay: as above; details: incubation time: 72 h
Summary of the method: as §2

[14] = test system: MFM-223; assay: as above; details: incubation time: 72 h
Summary of the method: as §2

[15] = test system: DU-4475; assay: as above; details: incubation time: 72 h
Summary of the method: as §2

[16] = test system: SK-BR-3; assay: as above; details: incubation time: 72 h
Summary of the method: as §2

[17] = test system: HCC1599; assay: as above; details: incubation time: 72 h
Summary of the method: as §2

[18] = test system: MDA-MB-231; assay: as above; details: incubation time: 72 h
Summary of the method: as §2

[19] = test system: HDQ-P1; assay: as above; details: incubation time: 72 h
Summary of the method: as §2

[20] = test system: CAL-148; assay: as above; details: incubation time: 72 h
Summary of the method: as §2

[21] = test system: HCC1937; assay: as above; details: incubation time: 72 h
Summary of the method: as §2

[22] = test system: CAL-85-1; assay: as above; details: incubation time: 72 h
Summary of the method: as §2

[23] = test system: CAL-51; details: 72 h
Summary of the method: (§3)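 Viability of breast cancer cell lines was measured with CellTiter-Blue after 72 h of incubation on compound-loaded 384-well plates. Cells were seeded in 20 µl onto compound dissolved in 5 µl medium, and 2.5 µl reagent was added for 2 h at 37 °C before reading at 560/590 nm. EC50 was fitted from percent-inhibition dose-response data censored at the highest concentration, normalised per plate to vehicle and a positive kill control, with zero drug sensitivity score rows dropped.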

[24] = test system: CAL-148; details: 72 h
Summary of the method: as §3

Cc1c2oc3c(C)ccc(C(=O)N[C@@H]4C(=O)N[C@H](C(C)C)C(=O)N5CCC[C@H]5C(=O)N(C)CC(=O)N(C)[C@@H](C(C)C)C(=O)O[C@@H]4C)c3nc-2c(C(=O)N[C@@H]2C(=O)N[C@H](C(C)C)C(=O)N3CCC[C@H]3C(=O)N(C)CC(=O)N(C)[C@@H](C(C)C)C(=O)O[C@@H]2C)c(N)c1=O [Dactinomycin]
Details | EC50, CellTiter-Blue viability [nM] | drug sensitivity score
[1] | – | 31.4
[2] | – | 27.4
[3] | – | 29.7
[4] | – | 28.9
[5] | – | 28.5
[6] | – | 34.1
[7] | – | 30.8
[8] | – | 30.9
[23] | 2.72 | –
[24] | 0.76 | –

normalised viability [%]
Details | 0.3 nM | 1 nM | 3 nM | 10 nM | 100 nM | 1000 nM
[9] | – | 73.3 | – | – | 25.2 | 24.1
[10] | – | 60.3 | – | – | 3.39 | 4.33
[11] | – | 56.6 | – | – | 4.94 | 4.47
[12] | – | 53.8 | – | – | 3.41 | 1.67
[13] | 85.1 | – | 42.9 | 40.5 | – | –
[14] | – | 86.2 | – | – | 8.99 | 10.4
[15] | 89.3 | – | 2.85 | 0.2 | – | –
[16] | – | 76 | – | – | 3.88 | 4.85
[17] | – | 87.7 | – | – | 18.1 | 12.8
[18] | – | 53.3 | – | – | 7.55 | 5.39
[19] | 85.1 | – | 45.2 | 35.9 | – | –
[20] | 71.8 | – | 32.4 | 4.61 | – | –
[21] | – | 65.8 | – | – | 21.8 | 18.4
[22] | 79.1 | – | 43.6 | 40.8 | – | –

Cc1ccc(F)c(NC(=O)Nc2ccc(-c3cccc4[nH]nc(N)c34)cc2)c1 [Linifanib]
Details | drug sensitivity score
[1] | 0
[2] | 0
[3] | 0
[4] | 0
[5] | 0
[6] | 0
[7] | 0
[8] | 0

normalised viability [%]
Details | 0.3 nM | 1 nM | 3 nM | 10 nM | 100 nM | 1000 nM
[9] | – | 113 | – | – | 108 | 123
[10] | – | 182 | – | – | 111 | 104
[11] | – | 91.5 | – | – | 96 | 97.5
[12] | – | 114 | – | – | 101 | 91.3
[13] | 111 | – | 111 | 104 | – | –
[14] | – | 101 | – | – | 96.6 | 98.4
[15] | 103 | – | 93.6 | 108 | – | –
[16] | – | 117 | – | – | 112 | 123
[17] | – | 109 | – | – | 108 | 109
[18] | – | 115 | – | – | 101 | 109
[19] | 107 | – | 111 | 103 | – | –
[20] | 93 | – | 96.3 | 94.4 | – | –
[21] | – | 147 | – | – | 93.6 | 111
[22] | 93.9 | – | 87.9 | 98.8 | – | –
